According to patent publication US20040122059A1, “PPAR-gamma ligands in the treatment of asthma and allergies” (The Penn State Research Foundation, priority 2002, published 2004):
“And” between values parts separate entries of the source, which are not always exact repeats. Equal entries are not always repeated.

Key:
splenocytes = test: Antigen specific cytokine production and proliferation of splenocytes from treated mice restimulated in vitro with OVA; format: in vivo, Balb/c mice; settings: for Proliferation: [3H]thymidine
Method: Measurement of lymphocyte proliferation and cytokine production. Th cells were cultured in 96 well plates for proliferation assays and 24 well plates for supernatants (Corning Costar, Corning, N.Y.). After 72 h, supernatants were collected for ELISAs. For proliferation assays, 0.4 μCi of [3H]thymidine (ICN, Costa Mesa, Calif.) was added to each well and the cells were incubated for an additional 18 h. Radioactive thymidine incorporation was determined by liquid scintillation using a Beta plate Counter. Mouse IL-2, IL-4, IL-5 and IFN-γ production were detected using ELISA kits from Pharmingen, following the instructions provided. […] Asthma was induced in the mice as described (Zhang et al. 1999. Immunity 11: 473). Briefly mice were injected intraperitoneally with 10 µg of OVA in Alum twice on day 1 and 5 of asthma induction (primed). On day 10, mice were challenged intranasally with OVA in sterile saline, every day for three days (40 μg total). In an alternative protocol the mice were only challenged intranasally (unprimed) with OVA for three consecutive days. Asthma induction was effective with or without the use of immunization (Alum and OVA injections). Two weeks after asthma induction (the day after the last intranasal challenge) the mice were sacrificed. Two different Ciglitazone treatments were done. […] The mice continued on these diets for the remainder of the study.

[1] = test system: murine model of allergic asthma; test: OVA-induced allergic asthma, lung histopathology (asthma severity); format: in vivo, Balb/c mice; settings: for Asthma severity (total histopathology score 0-6): 0.12 μM Ciglitazone/daily per mouse in diet from one week before induction
Method: Asthma was induced in the mice as described (Zhang et al. 1999. Immunity 11: 473). Briefly mice were injected intraperitoneally with 10 µg of OVA in Alum twice on day 1 and 5 of asthma induction (primed). On day 10, mice were challenged intranasally with OVA in sterile saline, every day for three days (40 μg total). In an alternative protocol the mice were only challenged intranasally (unprimed) with OVA for three consecutive days. Asthma induction was effective with or without the use of immunization (Alum and OVA injections). Two weeks after asthma induction (the day after the last intranasal challenge) the mice were sacrificed. Two different Ciglitazone treatments were done. […] The mice continued on these diets for the remainder of the study. […] Asthma severity. The lungs were fixed in formalin and sent to the Penn State University Animal Diagnostic Laboratories for sectioning and staining with hematoxylin and eosin. The sections were scored blindly on a scale of 0 to 3 for inflammation and 0-3 for epithelial thickening. […] The inflammation and epithelial scores for each section were added together for a total histopathology score ranging from 0-6. The results are presented as means±SEMs. […] In this model, mice are initially exposed to OVA in complex with Alum intraperitoneally, then challenged intranasally with OVA. This protocol usually leads to increased inflammatory cell infiltration into the lung, thickening of the epithelial cells lining the bronchioles of the lung, mucous secretion and in most cases, increased presence of circulating serum IgE. These symptoms highlight the predominant TH2 nature of this disease. Mice (Balb/c) were primed and with OVA intranasally as described in the Materials and Methods section. Twenty-four hours after the final intranasal challenge, mice were analyzed for immunological symptoms of allergic asthma. […]

TH1 cells = test: Cytokine production by TH1-primed DO11.10 CD4+ T cells stimulated with PMA and ionomycin; format: cell-based, mouse; settings: PGJ2 10 mM, CLA 5 mM, 72 h supernatant ELISA
Method: (§1) TH cell cultures. Lymph node and spleen cells from the DO11.10 TCR transgenic mice were removed and CD4 positive cells were isolated using the CD4 Immunocolumns and the manufacturer's instructions (Cedarlane labs, Homby, Canada). CD4 positive T cells (95-98% pure) were cultured in vitro with OVA and mitomycin C treated splenocytes from congenic mice. The cultures were incubated under neutral conditions (TH0 priming) or with rIL-4 and anti-IFN-γ antibodies (TH2 priming), or with rIL-12 (TH1 priming). After 4 days (4d) in culture the cells were collected and dead splenocytes were removed by centrifugation over histopaque. […] T cells were collected and recultured with rIL-2 (Pharmingen) for 3 d to expand the T cells. Cells were then collected, washed and stimulated for proliferation and cytokine synthesis with phorbal myristiyl acetate (PMA, Sigma, St. Louis, Mo.) and ionomycin (Sigma) in the presence of PJG2, conjugated linoleic acid (CLA) or control treated.
(§2) Measurement of lymphocyte proliferation and cytokine production. Th cells were cultured in 96 well plates for proliferation assays and 24 well plates for supernatants (Corning Costar, Corning, N.Y.). After 72 h, supernatants were collected for ELISAs. For proliferation assays, 0.4 μCi of [3H]thymidine (ICN, Costa Mesa, Calif.) was added to each well and the cells were incubated for an additional 18 h. Radioactive thymidine incorporation was determined by liquid scintillation using a Beta plate Counter. Mouse IL-2, IL-4, IL-5 and IFN-γ production were detected using ELISA kits from Pharmingen, following the instructions provided. The ELISA detection limits were 25 pg/ml IL-2, 62 pg/ml IL-4, 312 pg/ml IL-5, and 1000 pg/ml IFN-γ.
(§3) The present inventors decided to test if T cells are direct targets of PPAR-γ ligands. Purified CD4+T cells carrying the transgenic TcR for OVA (DO11.10) were cultured in vitro with OVA and mitomycin C treated splenocytes under neutral conditions (THO priming) or with rIL-4 and anti-IFN-γ antibodies (TH2 priming), or with rIL-12 (TH1 priming). Following 4 days of initial culture, cells were isolated and expanded in rIL-2. These expanded antigen specific T cells were stimulated in the presence or absence of PJG2, a PPAR-γ ligand and cells analyzed for proliferation and cytokine synthesis (Table 1). As previously characterized, cells initially stimulated under TH1 conditions (TH1 cells) secreted more IFN-γ and IL-2 and less IL-4 and IL-5 than those initially stimulated under TH2 conditions (TH2 cells). The TH1 and TH2 cells were greater than 95% CD4+and carried the transgenic TcR (data not shown). The PPAR-γ ligand PGJ2 regulated cytokine production in both TH1 and TH2 cells. PGJ2 inhibited IL-4 and IL-5 production in TH1 cells and inhibited IFN-γ, IL-2, and IL-5 production in TH2 cells (Table 1).

TH2 cells = test: Cytokine production by TH2-primed DO11.10 CD4+ T cells stimulated with PMA and ionomycin; format: cell-based, mouse; settings: PGJ2 10 mM, CLA 5 mM, 72 h supernatant ELISA
Method: as §1, §2, §3

[2] = Primed mice, late Ciglitazone treatment

Compound | IL-5 (splenocytes; Primed mice fed Ciglitazone) | Proliferation (splenocytes; Primed mice fed Ciglitazone) | IFN-γ (splenocytes; [2]) | IL-4 (splenocytes; [2]) | IL-5 (splenocytes; [2]) | Proliferation (splenocytes; [2]) | Asthma severity (total histopathology score 0-6) ([1]; PRIMED mice (OVA/Alum i.p., then intranasal OVA)) | Asthma severity (total histopathology score 0-6) ([1]; UNPRIMED mice, intranasal OVA challenge only) | Histopathology score of representative lung section (FIG. 1B) ([1]; representative lung, Ciglitazone treated) | IFN-γ (TH1 cells) | IL-2 (TH1 cells) | IL-4 (TH2 cells) | IL-5 (TH1 cells) | IFN-γ (TH2 cells) | IL-2 (TH2 cells) | IL-5 (TH2 cells)
CC1(COc2ccc(CC3SC(=O)NC3=O)cc2)CCCCC1 (stereo not shown) [Ciglitazone] | 903 ± 87 pg/mL | 10649 ± 492 CPM | 4063 ± 170 pg/mL | 395 ± 92 pg/mL | 875 ± 79 pg/mL | 10579 ± 1477 CPM | 1+/−0.3 and 1.0 ± 0.3 | 0.8+/−0.2 and 0.8±0.2 | 1 |  |  |  |  |  |  | 
CCCCC/C=C/C=C1/C(=O)C=C[C@@H]1C/C=C\CCCC(=O)O [PGJ2, 15-deoxy-Delta(12,14)-prostaglandin J(2)] |  |  |  |  |  |  |  |  |  | 14370 ± 250 pg/mL | 512 ± 1 pg/mL | 1861 ± 28 pg/mL |  |  |  | 
conjugated linoleic acid [CLA] |  |  |  |  |  |  |  |  |  | 14689 ± 370 pg/mL | 522 ± 20 pg/mL | 1863 ± 62 pg/mL | 150 ± 6 pg/mL | 5592 ± 306 pg/mL | 224 ± 4 pg/mL | 240 ± 52 pg/mL
